Measured values: US20220183282A1, “Fatty Acid Derivatives For Improving The Effect Of Agrochemical Actives” (priority 2019, published 2022)
Where two headings read alike, the source gives them in different places.

What was measured:
apple leaf cuticles [1] = conditions: for Mean penetration for Benzyladenine after time: Benzyladenine 0.1 g/L in spray liquid
Excerpt: (§1) Surfactants can affect the absorption of (active) ingredients through membranes such as skin, films or the plant cuticle. As a “finite-dose” application, it is known for the single administration or application of a solution, cream, gel etc. to a membrane that the absorption of active ingredient can be influenced by some additives such as surfactants even after wetting.
(§2) The principle of the method has been published and described in detail e.g. in WO-A-2005/194844 or WO2017211572 A1). The leaf cuticles were enzymatically isolated in the manner described in the literature from apple leaves of orchard trees in a commercial stone fruit growing facility near Frankfurt am Main in 2017. The stomata-free cuticles were first dried under air and then installed into stainless steel diffusion cells. After application to the original upper side of the leaf and evaporation of the test liquid, i.e. of the spray liquids of the active ingredients with or without the inventive substances or comparative compositions, the diffusion cells were transferred into thermostated blocks and charged with aqueous liquid. The water used to make up the aqueous test liquids was local tap water (of known composition). At regular intervals, aliquot samples were taken and the proportion of active ingredient penetrated was determined by HPLC or alternatively by radio-chemical method where radio-labelled active ingredient was used as tracer to determine the concentration. During the experiment, the temperature in the system (block, diffusion cells, liquids, etc.) and the air humidity above the spray deposit on the cuticle were controlled. In the experiment, relative air humidity was constant throughout at 56% relative air humidity (air over supersaturated calcium nitrate) at a constant 10° C. or 25° C. The analytical determination by means of HPLC (1290 Infinity, Agilent) was effected thereafter with a Kinetex column 30×2, 1 mm, 2.6μ C18 100 A (Phenomenex), taking a 20 μL aliquot as injection volume at the specified times. In each case, the geometric mean values of the penetration for intact membranes at the mean measurement times are given.

apple leaf cuticles [2] = test: Penetration of MCPA through isolated apple leaf cuticles in the presence of test substances; conditions: for Mean penetration for MCPA after time: MCPA 1.5 g/L in spray liquid, 25° C./56% rel. air humidity
Excerpt: as §1, §2

Structure (SMILES): CCCCCCCCC(=O)OCCOCCOCCOCCOCCOCCOC [A1, Pelargonic acid 6 EO ester methyl ether]
- Mean penetration for Benzyladenine after time (apple leaf cuticles [1]; test substance 0.3 g/L, 1 day): 4.2%
- Mean penetration for Benzyladenine after time (apple leaf cuticles [1]; test substance 0.3 g/L, 2 days): 4.5%
- Mean penetration for Benzyladenine after time (apple leaf cuticles [1]; test substance 0.8 g/L, 1 day): 9.7%
- Mean penetration for Benzyladenine after time (apple leaf cuticles [1]; test substance 0.8 g/L, 2 days): 10.6%
- Mean penetration for Benzyladenine after time (apple leaf cuticles [1]; test substance 1.5 g/L, 1 day): 17.2%
- Mean penetration for Benzyladenine after time (apple leaf cuticles [1]; test substance 1.5 g/L, 2 days): 17.9%
- Mean penetration for Benzyladenine after time (apple leaf cuticles [1]; test substance 3.0 g/L, 1 day): 17.9%
- Mean penetration for Benzyladenine after time (apple leaf cuticles [1]; test substance 3.0 g/L, 2 days): 18.6%
- uptake of the agrochemical active (Benzyladenine), in words (apple leaf cuticles [1]; summary of Table 10): strongly increases the uptake
- Mean penetration for MCPA after time (apple leaf cuticles [2]; test substance 0.3 g/L, 0.5 day): 34.2%
- Mean penetration for MCPA after time (apple leaf cuticles [2]; test substance 0.3 g/L, 1 day): 45.5%
- Mean penetration for MCPA after time (apple leaf cuticles [2]; test substance 1.0 g/L, 0.5 day): 46.9%
- Mean penetration for MCPA after time (apple leaf cuticles [2]; test substance 1.0 g/L, 1 day): 53.9%
- uptake of the active ingredient (MCPA), in words (apple leaf cuticles [2]; summary of Table 3): strongly increases the uptake
